Blank lines part the entries; values can stand above or below the compound they belong to.
What was measured:
HepG2 = test: Antitumor activity against human HepG2 cells xenografted mouse assessed as inhibition of tumor growth at 100 mg/kg qd for 18 days; assay type: functional; conditions: HepG2, 432 h, read-out: TGI
SW-620 = test: Antitumor activity against human SW620 cells xenografted mouse assessed as inhibition of tumor growth at 100 mg/kg qd for 18 days; assay type: functional; conditions: SW-620, 432 h, read-out: TGI
Danio rerio = organism: Danio rerio; test: Antiangiogenic activity in zebrafish embryos assessed as inhibition of intersegmental vessel growth at 2.5 uM; assay type: functional, Embryo
HUVEC = test: Antiangiogenic activity in HUVEC assessed as inhibition of tube formation at 10 uM; assay type: functional; conditions: Homo sapiens
[1] = target: Vascular endothelial growth factor receptor 2 (Homo sapiens, UniProt P35968); test: Inhibition of VEGFR2
[2] = target: Fibroblast growth factor receptor 2 (Homo sapiens, UniProt P21802); test: Inhibition of FGFR2
[3] = target: Fibroblast growth factor receptor 1 (Homo sapiens, UniProt P11362); test: Inhibition of FGFR1
[4] = target: Vascular endothelial growth factor receptor 3 (Homo sapiens, UniProt P35916); test: Inhibition of VEGFR3
[5] = target: Vascular endothelial growth factor receptor 1 (Homo sapiens, UniProt P17948); test: Inhibition of VEGFR1
[6] = target: Platelet-derived growth factor receptor beta (Homo sapiens, UniProt P09619); test: Inhibition of PDGFRbeta
[7] = target: Mast/stem cell growth factor receptor Kit (Homo sapiens, UniProt P10721); test: Inhibition of c-Kit
Mus musculus = test: Antitumor activity against human tumor xenografted athymic mouse assessed as inhibition of tumor growth; assay type: functional
[8] = Inhibition of FGFRbeta
[9] = target: Tyrosine-protein kinase Lck (Homo sapiens, UniProt P06239); test: Inhibition of LCK
[10] = target: RAF proto-oncogene serine/threonine-protein kinase (Homo sapiens, UniProt P04049); test: Inhibition of c-Raf

Vascular endothelial growth factor receptor 3, sequence (P35916 whole entry): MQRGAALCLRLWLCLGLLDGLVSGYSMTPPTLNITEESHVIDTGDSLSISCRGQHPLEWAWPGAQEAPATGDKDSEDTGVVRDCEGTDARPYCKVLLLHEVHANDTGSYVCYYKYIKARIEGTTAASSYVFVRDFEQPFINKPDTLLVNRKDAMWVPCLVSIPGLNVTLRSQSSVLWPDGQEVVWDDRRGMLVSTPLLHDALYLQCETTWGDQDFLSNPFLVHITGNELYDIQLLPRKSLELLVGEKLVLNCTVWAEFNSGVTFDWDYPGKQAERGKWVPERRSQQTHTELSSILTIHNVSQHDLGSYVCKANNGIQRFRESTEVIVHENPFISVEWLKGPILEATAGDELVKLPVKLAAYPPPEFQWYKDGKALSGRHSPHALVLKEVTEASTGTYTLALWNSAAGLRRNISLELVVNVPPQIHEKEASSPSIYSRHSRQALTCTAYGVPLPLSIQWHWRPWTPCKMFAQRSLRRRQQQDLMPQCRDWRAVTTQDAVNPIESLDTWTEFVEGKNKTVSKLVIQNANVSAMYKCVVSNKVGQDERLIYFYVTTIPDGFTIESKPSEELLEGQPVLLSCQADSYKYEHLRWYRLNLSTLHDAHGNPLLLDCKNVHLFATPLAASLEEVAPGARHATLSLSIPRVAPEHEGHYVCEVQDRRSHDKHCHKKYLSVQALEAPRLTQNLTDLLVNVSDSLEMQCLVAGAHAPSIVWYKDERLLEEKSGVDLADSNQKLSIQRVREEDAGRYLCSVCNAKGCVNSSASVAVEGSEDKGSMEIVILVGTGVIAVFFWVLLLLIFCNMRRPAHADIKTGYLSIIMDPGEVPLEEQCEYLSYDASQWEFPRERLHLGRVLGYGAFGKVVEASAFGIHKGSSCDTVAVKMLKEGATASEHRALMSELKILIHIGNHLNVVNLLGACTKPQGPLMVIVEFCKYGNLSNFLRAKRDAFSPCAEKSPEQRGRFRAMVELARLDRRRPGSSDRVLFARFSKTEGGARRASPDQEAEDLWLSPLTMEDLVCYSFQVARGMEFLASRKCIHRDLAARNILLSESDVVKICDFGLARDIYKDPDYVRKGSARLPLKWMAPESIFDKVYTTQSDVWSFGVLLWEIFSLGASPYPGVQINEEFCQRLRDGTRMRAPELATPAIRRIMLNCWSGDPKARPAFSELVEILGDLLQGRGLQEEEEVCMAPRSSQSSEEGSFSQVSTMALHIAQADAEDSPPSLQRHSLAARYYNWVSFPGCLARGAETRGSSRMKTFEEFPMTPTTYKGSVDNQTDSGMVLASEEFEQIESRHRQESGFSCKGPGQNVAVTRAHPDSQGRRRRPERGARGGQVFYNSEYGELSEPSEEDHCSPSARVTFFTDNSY
Vascular endothelial growth factor receptor 2, sequence (P35968 whole entry): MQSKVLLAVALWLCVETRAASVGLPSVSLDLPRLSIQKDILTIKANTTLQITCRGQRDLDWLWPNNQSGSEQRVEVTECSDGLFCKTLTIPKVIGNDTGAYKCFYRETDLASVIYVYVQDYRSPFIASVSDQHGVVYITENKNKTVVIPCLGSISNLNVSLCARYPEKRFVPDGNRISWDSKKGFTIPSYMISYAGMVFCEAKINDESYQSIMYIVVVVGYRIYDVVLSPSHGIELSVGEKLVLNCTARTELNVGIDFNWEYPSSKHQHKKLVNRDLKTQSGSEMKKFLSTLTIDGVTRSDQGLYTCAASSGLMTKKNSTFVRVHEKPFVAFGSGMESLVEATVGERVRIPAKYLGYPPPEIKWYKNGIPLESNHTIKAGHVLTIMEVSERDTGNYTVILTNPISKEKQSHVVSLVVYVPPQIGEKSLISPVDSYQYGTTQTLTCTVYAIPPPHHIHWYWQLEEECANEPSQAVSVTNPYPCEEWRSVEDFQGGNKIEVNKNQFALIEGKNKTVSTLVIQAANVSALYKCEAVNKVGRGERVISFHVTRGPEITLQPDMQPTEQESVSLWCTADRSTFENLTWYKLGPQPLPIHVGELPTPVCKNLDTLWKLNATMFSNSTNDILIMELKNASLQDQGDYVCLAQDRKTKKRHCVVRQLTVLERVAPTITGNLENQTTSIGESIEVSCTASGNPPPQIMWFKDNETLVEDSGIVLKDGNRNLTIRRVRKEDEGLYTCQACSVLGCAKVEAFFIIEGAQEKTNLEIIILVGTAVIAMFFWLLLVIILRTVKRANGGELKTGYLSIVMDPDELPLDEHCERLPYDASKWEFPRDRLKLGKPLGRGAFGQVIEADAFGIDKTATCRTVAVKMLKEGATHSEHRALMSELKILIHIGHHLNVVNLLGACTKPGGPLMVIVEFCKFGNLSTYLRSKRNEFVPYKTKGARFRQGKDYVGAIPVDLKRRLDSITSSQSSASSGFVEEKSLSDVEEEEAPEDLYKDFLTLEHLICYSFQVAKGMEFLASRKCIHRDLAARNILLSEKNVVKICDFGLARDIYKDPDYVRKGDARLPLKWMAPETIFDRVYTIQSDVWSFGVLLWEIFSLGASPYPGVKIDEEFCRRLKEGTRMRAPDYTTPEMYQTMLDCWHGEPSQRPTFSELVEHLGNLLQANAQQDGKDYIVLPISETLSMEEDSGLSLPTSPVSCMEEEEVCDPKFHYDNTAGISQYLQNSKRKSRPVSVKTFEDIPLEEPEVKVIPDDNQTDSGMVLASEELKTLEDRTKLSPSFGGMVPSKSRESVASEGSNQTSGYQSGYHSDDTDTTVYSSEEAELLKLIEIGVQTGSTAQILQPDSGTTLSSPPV
Mast/stem cell growth factor receptor Kit, sequence (P10721 whole entry): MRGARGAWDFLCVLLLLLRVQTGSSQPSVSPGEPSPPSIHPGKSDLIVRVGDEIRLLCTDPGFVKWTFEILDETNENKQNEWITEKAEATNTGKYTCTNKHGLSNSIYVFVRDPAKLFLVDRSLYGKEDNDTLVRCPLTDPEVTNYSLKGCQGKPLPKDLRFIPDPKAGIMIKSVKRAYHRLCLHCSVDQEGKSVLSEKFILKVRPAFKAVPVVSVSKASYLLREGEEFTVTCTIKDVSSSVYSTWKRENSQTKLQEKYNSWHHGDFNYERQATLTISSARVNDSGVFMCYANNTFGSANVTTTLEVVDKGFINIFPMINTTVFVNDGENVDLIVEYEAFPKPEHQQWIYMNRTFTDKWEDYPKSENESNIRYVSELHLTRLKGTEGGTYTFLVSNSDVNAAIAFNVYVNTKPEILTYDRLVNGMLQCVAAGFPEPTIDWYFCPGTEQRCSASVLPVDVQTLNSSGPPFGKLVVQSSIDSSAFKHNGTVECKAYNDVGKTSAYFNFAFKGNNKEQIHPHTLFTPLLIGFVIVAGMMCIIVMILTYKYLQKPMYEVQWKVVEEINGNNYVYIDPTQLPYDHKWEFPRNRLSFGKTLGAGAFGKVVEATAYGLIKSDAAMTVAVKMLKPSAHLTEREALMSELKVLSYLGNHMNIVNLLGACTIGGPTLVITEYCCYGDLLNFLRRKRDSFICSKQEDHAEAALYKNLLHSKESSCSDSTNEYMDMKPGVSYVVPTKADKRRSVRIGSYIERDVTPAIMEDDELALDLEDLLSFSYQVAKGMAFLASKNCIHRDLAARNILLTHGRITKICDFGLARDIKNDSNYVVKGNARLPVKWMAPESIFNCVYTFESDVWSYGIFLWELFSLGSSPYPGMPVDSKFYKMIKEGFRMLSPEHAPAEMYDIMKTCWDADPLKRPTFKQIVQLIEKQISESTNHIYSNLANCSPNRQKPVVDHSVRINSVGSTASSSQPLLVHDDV
Fibroblast growth factor receptor 2, sequence (P21802 whole entry): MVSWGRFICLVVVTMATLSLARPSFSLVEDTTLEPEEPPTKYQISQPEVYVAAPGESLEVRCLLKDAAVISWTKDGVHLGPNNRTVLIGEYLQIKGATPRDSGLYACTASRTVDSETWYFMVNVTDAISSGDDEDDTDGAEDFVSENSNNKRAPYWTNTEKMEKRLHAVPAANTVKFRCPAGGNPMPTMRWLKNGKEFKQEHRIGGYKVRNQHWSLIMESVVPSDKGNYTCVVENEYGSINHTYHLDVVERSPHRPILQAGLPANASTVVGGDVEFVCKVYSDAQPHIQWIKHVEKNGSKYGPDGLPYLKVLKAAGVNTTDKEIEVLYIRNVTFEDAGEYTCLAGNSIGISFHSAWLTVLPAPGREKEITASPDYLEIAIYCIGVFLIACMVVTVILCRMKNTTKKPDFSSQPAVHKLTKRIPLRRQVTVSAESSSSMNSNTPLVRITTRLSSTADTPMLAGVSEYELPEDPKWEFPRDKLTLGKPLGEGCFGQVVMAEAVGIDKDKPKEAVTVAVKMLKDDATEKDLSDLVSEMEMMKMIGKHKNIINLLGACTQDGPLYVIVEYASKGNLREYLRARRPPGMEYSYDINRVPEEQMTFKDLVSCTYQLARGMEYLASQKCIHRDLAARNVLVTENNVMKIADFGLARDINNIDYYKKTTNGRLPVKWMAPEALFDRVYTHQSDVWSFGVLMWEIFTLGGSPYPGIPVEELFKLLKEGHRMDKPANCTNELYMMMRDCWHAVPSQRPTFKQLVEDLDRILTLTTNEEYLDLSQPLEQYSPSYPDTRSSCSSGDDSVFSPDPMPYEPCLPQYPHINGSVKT
Tyrosine-protein kinase Lck, sequence (P06239 whole entry): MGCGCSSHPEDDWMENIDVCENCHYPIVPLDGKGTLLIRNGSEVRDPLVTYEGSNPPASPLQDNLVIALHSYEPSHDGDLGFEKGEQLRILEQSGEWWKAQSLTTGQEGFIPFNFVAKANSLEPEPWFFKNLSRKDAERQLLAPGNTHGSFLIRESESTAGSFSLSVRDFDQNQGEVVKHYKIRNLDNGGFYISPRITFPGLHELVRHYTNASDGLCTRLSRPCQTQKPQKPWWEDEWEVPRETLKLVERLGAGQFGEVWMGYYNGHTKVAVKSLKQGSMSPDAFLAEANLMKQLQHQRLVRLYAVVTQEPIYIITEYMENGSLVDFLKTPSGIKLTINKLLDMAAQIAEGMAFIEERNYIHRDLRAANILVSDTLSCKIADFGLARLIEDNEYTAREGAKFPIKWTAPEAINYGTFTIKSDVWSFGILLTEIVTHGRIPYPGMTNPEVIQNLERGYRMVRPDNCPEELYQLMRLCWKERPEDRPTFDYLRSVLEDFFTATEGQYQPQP

Compound: COc1cc2ncnc(Sc3nnc(C)s3)c2cc1OC
inhibition in vivo at 100 mg/kg (HepG2): 63%
inhibition in vivo at 100 mg/kg (SW-620): 72%
inhibition (INH) (Danio rerio): 80%
inhibition at 10 µM (HUVEC): 98%
IC50 [1]: 32 nM

Compound: CNC(=O)c1cccc2cc(Oc3ccnc4cc(OCC5(N)CC5)c(OC)cc34)ccc12
IC50 [2]: 82.5 nM
IC50 [3]: 17.5 nM
IC50 [4]: 10 nM
IC50 [1]: 25 nM
IC50 [5]: 7 nM

Compound: COc1cc2c(Oc3ccc(Nc4ccc(C(C)(C)C)cc4)cc3)ccnc2cc1OCCNCCO
IC50 [6]: 69 nM
IC50 [2]: 69 nM
IC50 [7]: 69 nM
IC50 [1]: 69 nM

Compound: COc1cc2nccc(Oc3ccc(NC(=O)NC4CC4)c(Cl)c3)c2cc1C(N)=O [LENVATINIB]
IC50 [4]: 5.2 nM

Compound: CNC(=O)c1cc(COc2nnc(Nc3ccc(Cl)cc3)c3ccoc23)ccn1 [TELATINIB]
IC50 [4]: 4 nM

More lines, main results first:

IC50 [1]: 77 nM
IC50 [5]: 59 nM
Compound: CCN1CCN(Cc2ccc(-c3cc4c(N[C@H](C)c5ccccc5)ncnc4[nH]3)cc2)CC1 [AEE-788]

IC50 [8]: 9 nM
Compound: NC(=O)c1c(OCc2c(F)cc(Br)cc2F)nsc1NC(=O)NCCCCN1CCCC1 [OSI-632]
TGI (Mus musculus): 85%

IC50 [9]: 22 nM
IC50 [10]: 41 nM
IC50 [7]: 10 nM
Compound: O=C(Nc1ccc(OC(F)(F)F)cc1)c1sccc1NCc1ccnc2ccccc12 [OSI-930]
